Source: patent publication US20040191240A1, “Composition and method for nerve regeneration” (priority 2003, published 2004)

What was measured:
N1E-115 cells [1] = experiment: Growth, cyclin D3 and pRb in N1E-115 cells; assay type: cell-based; settings: for phosphorylation state of pRb / protein level of cyclin D3: Western blot; for growth of N1E-115 cells: after transfection
Protocol: (§1) NIH3T3 cells, N1E-115 cells and 293T cells were maintained in DMEM containing 10% fetal bovine serum. Lipofectamine 2000 (Invitrogen) was used for transfection. For the stress fiber formation assay, NIH3T3 cells were cultured in serum-free medium for 16 hours after transfection. Stress fiber formation was evoked by incubating the cells with 10% serum for 10 minutes. Hippocampal neurons were prepared from […], as previously described (Neumann, H. et al., Science. 269:549-552, 1995). Briefly, hippocampi were dissected and the meninges removed. The trimmed tissue was dissociated by trituration. The dissociated cells were plated on dishes pre-coated with poly-L-lysine (Sigma), and cultured in DMEM containing 10% fetal bovine serum for 24 hours. Then, the medium was replaced with DMEM with B27 supplement (Invitrogen), and the cells were transfected with GFP or GFP-ΔNLS-p21. Neuronal morphology was estimated at 24 hours after the transfection.

N1E-115 cells [2] = experiment: Morphological analysis of N1E-115 cells; assay type: cell-based; settings: for cell population with long neurites / neurite formation: transfection, 48 h, Y-27632 10 μM for 30 minutes
Protocol: N1E-115 cells were transfected with GFP, GFP-full-p21 or GFP-ΔNLS-p21, and cultured in serum-starved condition for 5 hours. Then, the medium was replaced with DMEM containing 10% fetal bovine serum. The cells were fixed at 48 hours after transfection. The morphology of the cells was categorized into 3 groups; neurite positive cells, round cells and the other cells. The cells with longer neurites than their soma were defined as neurite positive cells. The other cells had various features including microspikes, ruffles and a flattened appearance.

myc-Rho-kinase [3] = molecular target: T1, myc-Rho-kinase (Bos taurus, UniProt Q28021); experiment: Rho-kinase kinase assay with lysates of transfected 293T cells; assay type: cell-based
Protocol: Cells were lysed with lysis buffer (50 mM Tris-HCl (pH 7.5), 150 mM NaCl, 10% glycerol, 1% Nonidet-P40 and protease inhibitor cocktail). The kinase assay was carried out using the lysates.

[4] = molecular target: T2, association of p75 with Rho GDI (Homo sapiens, UniProt P08138); experiment: Co-precipitation of p75 with recombinant GST-Rho GDI or GST-RhoA; assay type: binding; settings: for direct binding of recombinant protein to p75 precipitated from transfected 293T cells: RhoA in the GDP-bound, GTP-bound or nucleotide-depleted state
T2 construct: host or cells: 293T (p75)
T2 sequence (P08138 29-427): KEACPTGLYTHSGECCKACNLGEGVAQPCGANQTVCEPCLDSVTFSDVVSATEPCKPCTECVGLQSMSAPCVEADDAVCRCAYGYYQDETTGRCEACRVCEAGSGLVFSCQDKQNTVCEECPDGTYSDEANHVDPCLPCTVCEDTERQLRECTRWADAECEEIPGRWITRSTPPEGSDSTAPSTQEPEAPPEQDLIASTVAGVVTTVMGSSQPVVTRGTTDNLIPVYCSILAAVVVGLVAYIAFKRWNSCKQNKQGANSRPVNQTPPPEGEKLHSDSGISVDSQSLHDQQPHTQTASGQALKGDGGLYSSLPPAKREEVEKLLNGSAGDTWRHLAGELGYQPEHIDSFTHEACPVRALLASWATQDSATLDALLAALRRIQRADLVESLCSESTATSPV

[5] = molecular target: T3, recombinant human p75-Fc chimera (Homo sapiens, UniProt P08138); experiment: Co-precipitation of recombinant p75 and gangliosides; assay type: binding; settings: precipitation with protein A sepharose, Western blot
T3 construct: Recombinant p75 extracellular domain fused to Fc purified from Sf21 cells; purchased Genzyme-Techne; host or cells: Sf21
T3 sequence (P08138 29-250 limits assumed): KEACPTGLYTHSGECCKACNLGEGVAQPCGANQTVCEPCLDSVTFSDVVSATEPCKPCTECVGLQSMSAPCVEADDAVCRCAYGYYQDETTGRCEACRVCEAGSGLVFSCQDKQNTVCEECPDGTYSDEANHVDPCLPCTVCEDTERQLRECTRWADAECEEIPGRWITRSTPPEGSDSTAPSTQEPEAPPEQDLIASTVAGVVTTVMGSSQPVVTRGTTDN
Protocol: Recombinant human p75-Fc chimera (1 μg; Genzyme-Techne) and 1 μg of purified ganglioside GT1b (>98% purity, Seikagaku Co.) were incubated in 200 μl 0.025% Tween20/PBS for 2 h, and p75 was precipitated using proteinA sepharose (Amersham Pharmacia Biotech). The resultant precipitates were electrophoretically transferred to polyvinylidene difluoride membranes after SDS-PAGE with 7% gels and were immunoblotted with anti GT1b antibody (IgM, Seikagaku Co.) or anti p75 antibody.

cerebellar neurons = experiment: Neurite outgrowth assay, post-natal cerebellar neurons; assay type: cell-based, mouse; settings: cells transfected with myc-tagged Rho GDI
NIH3T3 cells = experiment: Stress fiber formation assay; assay type: cell-based; settings: serum-starved 16 hours, 10% serum 10 minutes
Protocol: as §1

myc-Rho-kinase [6] = molecular target: T1, myc-Rho-kinase; experiment: Co-immunoprecipitation of p21 constructs and Rho-kinase in 293T cells; assay type: cell-based; settings: 293T cells cotransfected
Protocol: 293T cells were transfected with myc-Rho-kinase in combination with GFP-full-p21 or GFP-ΔNLS-p21. At 48 hours after transfection, the cells were lysed with 1 ml of lysis buffer (50 mM Tris-HCl (pH 7.5), 150 mM NaCl, 10% glycerol, 0.5% Nonidet-P40 including protease inhibitor cocktail tablets (Roche). The cell lysates were centrifuged at 13,000×g for 20 minutes, and the supernatant was collected. Immunoprecipitations were performed for 2 hours at 4° C. using an anti-p21 mouse monoclonal antibody (Santa Cruz Biotechnology) and 0.75 ml of the supernatant. The immunocomplexes were collected with protein G-Sepharose (Amersham Pharmacia Biotech) slurry (50% v/v), washed 4 times with lysis buffer, and subjected to SDS-PAGE. They were transferred to the polyvinylidene difluoride membranes and probed with the anti-myc rabbit polyclonal antibody (Santa Cruz Biotechnology). Interaction of endogenous proteins in N1E-115 cells was assessed in the same way using anti Rho-kinase antibody.

hippocampal neurons = experiment: Neurite outgrowth and branching of hippocampal neurons; assay type: cell-based; settings: rat E18, 24 hours after transfection
Protocol: as §1
Cultures of the hippocampal neurons from rat E18 embryos were used. […] Twenty-four hours after transfection, the cells were fixed and immunolabeled with β-tubulin III. The total neurite length per neuron, the axonal length, defined as the length of the longest neurite per neuron, the number of primary processes originating from the neuronal somata, and the number of branch points per neuron were determined (Neumann, H. et al., J. Neurosci. 22:854-862, 2002).

T1 sequence (Q28021 whole entry): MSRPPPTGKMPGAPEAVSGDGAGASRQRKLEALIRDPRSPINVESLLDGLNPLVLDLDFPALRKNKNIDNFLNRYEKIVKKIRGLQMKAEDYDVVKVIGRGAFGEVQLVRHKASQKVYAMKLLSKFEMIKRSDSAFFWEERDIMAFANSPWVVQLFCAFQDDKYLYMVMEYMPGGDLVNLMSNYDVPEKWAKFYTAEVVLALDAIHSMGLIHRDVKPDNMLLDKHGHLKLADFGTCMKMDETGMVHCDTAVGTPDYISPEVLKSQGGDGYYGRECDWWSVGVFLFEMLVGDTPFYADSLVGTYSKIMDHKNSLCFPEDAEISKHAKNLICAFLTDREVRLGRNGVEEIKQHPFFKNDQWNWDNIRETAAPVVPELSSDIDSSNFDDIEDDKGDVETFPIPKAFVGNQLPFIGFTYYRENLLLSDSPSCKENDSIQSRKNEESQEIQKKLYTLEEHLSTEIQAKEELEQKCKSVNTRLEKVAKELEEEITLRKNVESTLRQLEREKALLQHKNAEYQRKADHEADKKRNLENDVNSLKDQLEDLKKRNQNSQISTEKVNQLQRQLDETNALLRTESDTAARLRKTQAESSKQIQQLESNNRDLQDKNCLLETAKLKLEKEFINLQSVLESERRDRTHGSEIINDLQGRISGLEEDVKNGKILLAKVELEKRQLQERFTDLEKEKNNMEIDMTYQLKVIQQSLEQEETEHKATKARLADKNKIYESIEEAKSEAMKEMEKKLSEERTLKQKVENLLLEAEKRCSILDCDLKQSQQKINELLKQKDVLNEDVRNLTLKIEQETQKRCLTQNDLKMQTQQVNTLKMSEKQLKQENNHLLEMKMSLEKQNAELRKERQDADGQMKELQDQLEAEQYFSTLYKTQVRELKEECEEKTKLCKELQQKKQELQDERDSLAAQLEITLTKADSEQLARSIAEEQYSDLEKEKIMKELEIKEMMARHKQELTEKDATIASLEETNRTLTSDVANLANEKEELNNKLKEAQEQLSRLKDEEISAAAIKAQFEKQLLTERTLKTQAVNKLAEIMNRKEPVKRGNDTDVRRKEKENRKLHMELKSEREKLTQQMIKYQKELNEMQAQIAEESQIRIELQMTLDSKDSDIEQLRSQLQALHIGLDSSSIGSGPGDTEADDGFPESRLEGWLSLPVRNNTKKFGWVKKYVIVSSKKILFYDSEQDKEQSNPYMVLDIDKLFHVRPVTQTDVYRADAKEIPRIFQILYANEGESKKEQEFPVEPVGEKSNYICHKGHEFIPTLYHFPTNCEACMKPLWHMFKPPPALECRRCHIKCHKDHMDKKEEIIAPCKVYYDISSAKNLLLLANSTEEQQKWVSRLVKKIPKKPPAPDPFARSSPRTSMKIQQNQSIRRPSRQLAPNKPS

## C[S+](C)[O-] [DMSO, reference compound]
N1E-115 cells [1]
  phosphorylation state of pRb: hyperphosphorylated pRb became undetectable
  protein level of cyclin D3: strongly increased

## C[C@@H](N)[C@H]1CC[C@H](C(=O)Nc2ccncc2)CC1 [Y-27632, reference compound]
N1E-115 cells [2]
  cell population with long neurites / neurite formation: induced significant neurite formation
myc-Rho-kinase [3]; HEK-293T, Y-27632 10 μM for 30 minutes, read-out: (compared to the original) inhibition of Rho-kinase activity
  inhibition at 10 µM: 51.9%

## CFFRGGFFNHNPRYC [Pep5]
[4]; 1 μM GST-Rho GDI, Pep5 at the indicated concentrations
  association of p75 with Rho GDI: inhibited the association of p75 with Rho GDI dose dependently

## GD1a
[5]
  association of ganglioside with recombinant p75 extracellular domain fused to Fc: did not see any interaction

## GM1
[5]
  association of ganglioside with recombinant p75 extracellular domain fused to Fc: no interaction

## GT1b
[5]
  association of ganglioside with recombinant p75 extracellular domain fused to Fc: binds to p75 in a manner that is SDS-resistant

## Rho GDI: Rho GDP dissociation inhibitor; recombinant GST-Rho GDI or myc-tagged Rho GDI over-expressed in neurons
Cerebellar neurons
  inhibitory effects of MAG and the Nogo peptide on neurite outgrowth on over-expression of Rho GDI: abolished these inhibitory effects
[4]
  direct binding of recombinant protein to p75 precipitated from transfected 293T cells: bound to p75

## RhoA: bacterially produced RhoA (GST-RhoA)
[4]
  direct binding of recombinant protein to p75 precipitated from transfected 293T cells: no interaction between them in any nucleotide state

## full-p21: GFP fused full length p21 (aa 1-164) expressed from pEGFP-full-p21
N1E-115 cells [1]
  protein level of cyclin D3: strongly increased
  growth of N1E-115 cells: stopped proliferation
N1E-115 cells [2]; 48 hours after transfection
  cell rounding: decreased cell rounding
N1E-115 cells [2]
  cell population with long neurites / neurite formation: no increase in the cell population that had long neurites
NIH3T3 cells
  formation of actin stress fibers after the addition of serum: Extensive actin stress fibers were observed
myc-Rho-kinase [6]
  co-immunoprecipitation of myc-tagged Rho-kinase with anti-p21 antibody: only a faint signal could be detected
myc-Rho-kinase [3]
  Rho-kinase activity in transfected cells: had no significant effect

## ΔNLS-p21: GFP fused p21 with loss of nuclear localization signal (aa 1-140) expressed from pEGFP-ΔNLS-p21
N1E-115 cells [1]
  phosphorylation state of pRb: hyperphosphorylated pRb remained predominant
  protein level of cyclin D3: no change in the expression
  growth of N1E-115 cells: proliferated until 48 hours after transfection
N1E-115 cells [2]; 48 hours after transfection
  cells that extended long neurites: more than 45%
  increase of cells with long neurites compared to the control: 3.1 -fold
NIH3T3 cells
  formation of actin stress fibers after the addition of serum: had little stress fiber formation
myc-Rho-kinase [6]
  co-immunoprecipitation of myc-tagged Rho-kinase with anti-p21 antibody: efficiently precipitated myc-tagged Rho-kinase
Hippocampal neurons
  number of primary processes: no change
Hippocampal neurons; control 1.3
  number of branch points per neuron: 2.6 (±0.3 SEM)
Hippocampal neurons; control 66.3
  axonal length (longest neurite per neuron): 162.9 μm
Hippocampal neurons; control 135.9
  total neurite length per neuron: 307.2 μm
